Source: patent publication EP0886648B1 (ORTHO PHARMACEUTICAL CORPORATION, priority 1995, dated 1996)
Where two headings read alike, the source gives them in different places. Positions of bridges follow the written chain, without caps; N, C: chain ends. Residues, ends and D or L forms follow the SMILES beside them. Chains are numbered I, II in the order given. No end group written: not given here.

Experiments:
[1] = biological target: T1, PIG-tailed EPO-R (Homo sapiens, UniProt P19235); experiment: radioligand competition binding assay against PIG-tailed EPO-R immobilized on mAb179
T1 construct: comprised the extracellular domain of the EPO-receptor and was produced in recombinant host cells; thrombin cleavage site (internal); made in house
T1 sequence (P19235 25-250 limits assumed): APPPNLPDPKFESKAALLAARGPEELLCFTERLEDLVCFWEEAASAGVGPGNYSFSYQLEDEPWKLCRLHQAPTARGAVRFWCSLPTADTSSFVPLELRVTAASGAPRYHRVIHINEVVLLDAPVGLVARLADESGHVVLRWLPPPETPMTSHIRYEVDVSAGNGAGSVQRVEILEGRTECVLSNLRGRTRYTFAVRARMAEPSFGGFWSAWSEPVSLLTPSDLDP
Description: The immobilized receptor used in the panning and ELISA procedures comprised the extracellular domain of the EPO-receptor and was produced in recombinant host cells. This receptor molecule can be produced in a variety of different forms and host cells. One useful form is constructed with a signal peptide for protein secretion and for glycophospholipid membrane anchor attachment (this form of anchor attachment is called "PIG-tailing;" see, Caras and Weddell, 3 March. 1989, Science 243:1196-1198; and Lin et al., 10 Aug. 1990, Science 249:677-679, each of which is incorporated herein by reference). This system allows for cleavage of the receptor from the surface of the cells expressing the receptor and collection of the cleaved receptor quite easily. Preferably, a protease cleavage site, such as a thrombin cleavage site, is inserted between the HPAP epitope of the PIG-tailed receptor and the receptor itself.
The recombinant receptor protein was immobilized using the following methodology. Microtiter plates were coated within an and-receptor antibody and the wells which were to contain the immobilized receptor were treated with bovine serum albumin (BSA) to block non-specific binding. The PIG-tailed receptor having a thrombin cleavage site was added to the coated wells of the microtiter plate, which were then washed to remove unbound receptor.
IC50s were calculated for several of the peptides falling within the general motifs described above. (Each of these peptides were independently synthesized and are C-terminally amidated, but could be easily prepared as the free carboxy acid or as an ester or other carboxy amide.)
This peptide was incubated with streptavidin in PBS at a 4:1 molar ratio at room temperature for one hour. Following this, the complex was introduced into the PIG-tailed EPO-R binding assay for IC50 determination. Peptide that had not been complexed to streptavidin was also run in the same experiment. […] Since this comparison was made using the free peptide concentrations and not the effective complex concentration (theoretically 4-fold lower), the effect will be even greater.
Figures 13 and 14 show the in vitro EPOR binding and biological activities of the dimer. The affinity of the dimer was tested against the PIG-tailed EPOR immobilized on mAb179 in strip wells.

[2] = system: FDCP-1/hEPO-R; details: for increase in potency over the parental peptide: EC50 of dimer vs GGTYSCHFGPLTWVCKPQGG
Description: One assay utilized FDCP-1, a growth factor dependent murine multi-potential primitive hematopoietic progenitor cell line (see, e.g.. Dexter et al. (1980) J. Exp. Med. 152:1036-1047), as the parental cell line. This cell line can proliferate, but not differentiate, when supplemented with WEHI3-conditioned media (a medium that contains IL-3, ATCC number T1B68).
In brief, the cells are grown to half stationary density in the presence of the necessary growth factors. The cells are then washed in PBS and starved for 16-24 hours in whole media without the growth factors. After determining the viability of the cells, stock solutions (in whole media without the growth factors) are made to give about 10^5 cells per 50 microliters. […] Cells (50 microliters) are added to each well and the cells are incubated 24-48 hours, at which point the negative controls should die or be quiescent. Cell proliferation is then measured by techniques known in the art, such as an MTT assay which correlates with ^3H-thymidine incorporation as an indication of cell proliferation (see, Mosmann (1983) J. Immunol. Methods 65:55).
In addition, this peptide was preincubated with streptavidin in serum-free HEPES-buffered RPMI at a 4:1 molar ratio, as above. The complex was tested for stimulation of cell proliferation in an FDCP-1/hEPO-R bioassay alongside free […] (Ahx-biotin)) and the unbiotinylated parental peptide, i.e., […].

[3] = biological target: T2, extracellular domain of the human erythropoietin receptor (EPO binding protein, EBP) (Homo sapiens, UniProt P19235); experiment: immobilized EBP based [125I]EPO competition binding assay
T2 construct: made in house
T2 sequence (P19235 25-250 limits assumed): T1 sequence (P19235 25-250 limits assumed)
Description: The mixture was rocked gently for 30 minutes at room temperature, and the beads were allowed to settle for 1 hour at room temperature. The supernatant was removed and retained, and the beads were washed twice with 20 ml of coupling buffer.
Competitive binding analysis assays of candidate peptides were performed as outlined below. Individual peptides were dissolved in DMSO to prepare a stock solution of 1 mM. […] Initial assay points with no added peptide were included in each assay to determine total binding. Binding mixtures were incubated overnight at room temperature with gentle rocking. The beads were then collected using Micro-columns (Isolab, Inc., Akron, Ohio) and washed with 3 mL of wash buffer.

[4] = system: FDC-P1/ER (murine receptor); experiment: peptide dependent growth of EPO-responsive cell line FDC-P1/ER (thymidine incorporation); type: cell-based
Description: • a. […] Cell Proliferation Assay: • i. […] Peptide is added to each well in triplicate.

[5] = system: Female BDF1 mice; experiment: polycythemic exhypoxic mouse bioassay; type: in vivo; details: approximate equivalency
Description: Female BDF1 mice (18-20 gms) are subjected to a conditioning cycle (in hypobaric chambers) of 18 hrs. at 0.40 ± 0.02 atm. and 6 hrs. at ambien pressure for a period of 14 days.
Mice are maintained at ambient pressure for 72 hrs prior to administration of r-HuEPO or test samples. Test samples or r-HuEPO standard are diluted for injection into conditioned mice. The vehicle consists of: PBS containing 0.1 % BSA (w/v). For each dilution, 0.5 ml is administered subcutaneously into each of 10 mice. ^59Fe is administered 48 hrs. later. Blood samples are taken 48 hrs. following administration of ^59Fe. Hematocrits and radioactivity measurements are determined for each sample. Dose range and results (two different assays) are set forth in Table 23 and Figures 17A-17C, infra.

[6] = free peptide, C-terminally amidated, read-out: IC50

Compound: CSCC[C@@H]1NC(=O)[C@H](CCCNC(=N)N)NC(=O)[C@@H](NC(=O)[C@H](Cc2c[nH]cn2)NC(=O)[C@H](Cc2ccc(O)cc2)NC(=O)[C@H](CC(=O)O)NC(=O)CNC(=O)CN)CSSC[C@@H](C(=O)N[C@@H](CCCCN)C(=O)N2CCC[C@H]2C(=O)N[C@@H](CC(C)C)C(=O)NCC(=O)NCC(N)=O)NC(=O)[C@H](C(C)C)NC(=O)[C@H](Cc2c[nH]c3ccccc23)NC(=O)[C@H]([C@@H](C)O)NC(=O)[C@H](CC(C)C)NC(=O)[C@@H]2CCCN2C(=O)CNC1=O (HELM PEPTIDE1{G.G.D.Y.H.C.R.M.G.P.L.T.W.V.C.K.P.L.G.G.[am]}$PEPTIDE1,PEPTIDE1,6:R3-15:R3$$$V2.0; N-terminus assumed)
- IC50 [1, 6]: 179 nM

Compound: CC(C)C[C@H](NC(=O)CNC(=O)CN)C(=O)N[C@@H](Cc1ccc(O)cc1)C(=O)N[C@@H](CC(C)C)C(=O)N[C@H]1CSSC[C@@H](C(=O)NCC(=O)N[C@@H](Cc2ccc(O)cc2)C(=O)N[C@@H](CCCCN)C(=O)NCC(=O)NCC(N)=O)NC(=O)[C@H](CC(=O)O)NC(=O)[C@H](Cc2c[nH]c3ccccc23)NC(=O)[C@H]([C@@H](C)O)NC(=O)[C@H](C(C)C)NC(=O)[C@@H]2CCCN2C(=O)CNC(=O)[C@H](Cc2ccccc2)NC(=O)[C@H](CCCNC(=N)N)NC1=O (HELM PEPTIDE1{G.G.L.Y.L.C.R.F.G.P.V.T.W.D.C.G.Y.K.G.G.[am]}$PEPTIDE1,PEPTIDE1,6:R3-15:R3$$$V2.0; N-terminus assumed)
- IC50 [1, 6]: 1670 nM

Compound: CC[C@H](C)[C@@H]1NC(=O)[C@@H]2CCCN2C(=O)CNC(=O)[C@H](CCSC)NC(=O)[C@H](CCCNC(=N)N)NC(=O)[C@@H](NC(=O)[C@H](C)NC(=O)[C@H](Cc2ccc(O)cc2)NC(=O)[C@@H](NC(=O)CNC(=O)CN)C(C)C)CSSC[C@@H](C(=O)N[C@@H](CO)C(=O)N2CCC[C@H]2C(=O)N[C@@H](CC(C)C)C(=O)NCC(=O)NCC(N)=O)NC(=O)[C@H](C(C)C)NC(=O)[C@H](Cc2c[nH]c3ccccc23)NC(=O)[C@H]([C@@H](C)O)NC1=O (HELM PEPTIDE1{G.G.V.Y.A.C.R.M.G.P.I.T.W.V.C.S.P.L.G.G.[am]}$PEPTIDE1,PEPTIDE1,6:R3-15:R3$$$V2.0; N-terminus assumed)
- IC50 [1, 6]: 352 nM

Compound: CC[C@H](C)[C@@H]1NC(=O)[C@@H]2CCCN2C(=O)CNC(=O)[C@H](Cc2ccccc2)NC(=O)[C@H](Cc2c[nH]cn2)NC(=O)[C@@H](NC(=O)[C@H](CCSC)NC(=O)[C@H](Cc2ccc(O)cc2)NC(=O)[C@H](CC(N)=O)NC(=O)CNC(=O)[C@@H](N)C(C)C)CSSC[C@@H](C(=O)N[C@@H](CCCNC(=N)N)C(=O)N2CCC[C@H]2C(=O)NCC(=O)NCC(=O)NCC(N)=O)NC(=O)[C@H](C(C)C)NC(=O)[C@H](Cc2c[nH]c3ccccc23)NC(=O)[C@H]([C@@H](C)O)NC1=O (HELM PEPTIDE1{V.G.N.Y.M.C.H.F.G.P.I.T.W.V.C.R.P.G.G.G.[am]}$PEPTIDE1,PEPTIDE1,6:R3-15:R3$$$V2.0; N-terminus assumed)
- IC50 [1, 6]: 420 nM

Compound: CC(C)C[C@@H]1NC(=O)[C@@H]2CCCN2C(=O)CNC(=O)[C@H](Cc2ccccc2)NC(=O)[C@H](Cc2c[nH]cn2)NC(=O)[C@@H](NC(=O)[C@H](CO)NC(=O)[C@H](Cc2ccc(O)cc2)NC(=O)[C@@H](NC(=O)CNC(=O)CN)[C@@H](C)O)CSSC[C@@H](C(=O)N[C@@H](CCCCN)C(=O)N2CCC[C@H]2C(=O)N[C@@H](CCC(N)=O)C(=O)NCC(=O)NCC(=O)N[C@@H](CO)C(=O)N[C@@H](CO)C(=O)N[C@@H](CCCCNC(=O)CCCCCNC(=O)CCCC[C@@H]2SC[C@@H]3NC(=O)N[C@@H]32)C(N)=O)NC(=O)[C@H](C(C)C)NC(=O)[C@H](Cc2c[nH]c3ccccc23)NC(=O)[C@H]([C@@H](C)O)NC1=O [AF11505] (HELM PEPTIDE1{G.G.T.Y.S.C.H.F.G.P.L.T.W.V.C.K.P.Q.G.G.S.S.K.[am]}|PEPTIDE2{[O=C1N[C@H]2[C@H](CS[C@H]2CCCCC(=O)[*:2])N1].[O=C(CCCCCN[*:1])[*:2]]}$PEPTIDE1,PEPTIDE2,23:R3-2:R2|PEPTIDE1,PEPTIDE1,6:R3-15:R3$$$V2.0; N-terminus and C-terminus assumed; bridges inferred)
- EPO-ED50 ([2]; free peptides): approximately 1 µM

Compound: CC(C)C[C@@H]1NC(=O)[C@@H]2CCCN2C(=O)CNC(=O)[C@H](Cc2ccccc2)NC(=O)[C@H](Cc2c[nH]cn2)NC(=O)[C@@H](NC(=O)[C@H](CO)NC(=O)[C@H](Cc2ccc(O)cc2)NC(=O)[C@@H](NC(=O)CNC(=O)CN)[C@@H](C)O)CSSC[C@@H](C(=O)N[C@@H](CCCCN)C(=O)N2CCC[C@H]2C(=O)N[C@@H](CCC(N)=O)C(=O)NCC(=O)NCC(N)=O)NC(=O)[C@H](C(C)C)NC(=O)[C@H](Cc2c[nH]c3ccccc23)NC(=O)[C@H]([C@@H](C)O)NC1=O [RWJ 61233] (HELM PEPTIDE1{G.G.T.Y.S.C.H.F.G.P.L.T.W.V.C.K.P.Q.G.G.[am]}$PEPTIDE1,PEPTIDE1,6:R3-15:R3$$$V2.0)
- EC50 [2]: 400 nM
- IC50 [3]: 5000 nM
- IC50 ([1]; equilibrium competition binding assay, strip wells, read-out: affinity): 200 nM
- IC50 [1, 6]: 237 nM
- EPO-ED50 [4]: 100 nM

Compound: I: GGTYSCHFGPLTWVCKPQGGK-NH2 / II: GGTYSCHFGPLTWVCKPQGG (disulfide I:6-I:15, II:6-II:15 (inferred); amide I:21-II:C (inferred); C-terminus assumed) [AF12080]
- Amount of Peptide Equivalent to 0.025 units of EPO [5]: 0.035 nmol
- increase in potency over the parental peptide [2]: approximately 20 fold
- increase in potency over the parental peptide ([2]; listed as dimeric peptide analog of GGTYSCHFGPLTWVCKPQGG): 20 fold
- increase over the value for the parental peptide ([1]; affinity vs GGTYSCHFGPLTWVCKPQGG): 200 fold
- increase over the streptavidin complex ([1]; affinity vs GGTYSCHFGPLTWVCKPQGGSSK (Ahx-biotin)-streptavidin complex): 5 fold

Compound: TIAQYICYMGPETWECRPSPKA [AF11654]
- Amount of Peptide Equivalent to 0.025 units of EPO [5]: 11 to 21 nmol

Compound: VGNYMAHMGPITWVCRPGG-NH2
- IC50 [1, 6]: 67000 nM
